Laboratory results taken from ChEMBL document CHEMBL4513153, “CO-ADD screening of University of Northwestern St. Paul (MN, USA) compounds”.

Assays:
[1] = tested on: Escherichia coli; assay: microbe, parasite or virus in culture; settings: ATCC 25922, 18 h, ASSAY_TEST Inhibition of Bacterial Growth, detection method Absorption (OD600), MEDIA CAMHB, plate type 384well, NBS, CORNING #3640
Description: Antibacterial activity against Escherichia coli ATCC 25922 (CO-ADD:GN_001); MIC in CAMBH media using NBS plates, by OD(600)

[2] = tested on: Cryptococcus neoformans
Description: Antifungal activity against Cryptococcus neoformans H99 ATCC 208821 (CO-ADD:FG_002); MIC in YNB media using NBS plates, by Resazurin OD(600-570)

[3] = tested on: Staphylococcus aureus; assay: microbe, parasite or virus in culture; settings: ATCC 43300, 18 h, ASSAY_TEST Inhibition of Bacterial Growth, detection method Absorption (OD600), MEDIA CAMHB, plate type 384well, NBS, CORNING #3640
Description: Antibacterial activity against Staphylococcus aureus MRSA ATCC 43300 (CO-ADD:GP_020); MIC in CAMBH media, using NBS plates, by OD(600)

[4] = tested on: Acinetobacter baumannii; assay: microbe, parasite or virus in culture; settings: ATCC 19606, 18 h, ASSAY_TEST Inhibition of Bacterial Growth, detection method Absorption (OD600), MEDIA CAMHB, plate type 384well, NBS, CORNING #3640
Description: Antibacterial activity against Acinetobacter baumannii ATCC 19606 (CO-ADD:GN_034); MIC in CAMBH media using NBS plates, by OD600

[5] = tested on: HEK293; assay: cells; format: functional; settings: Homo sapiens, ATCC CRL1573, HEK293; ASSAY_TEST Inhibition of Cell Viability; detection method Resazurin; Fluorescence (ex560/em590); MEDIA DMEM with 10% FBS; plate type 384well; TC; CORNING #3712; time 18 hr
[6] = tested on: Klebsiella pneumoniae; assay: microbe, parasite or virus in culture; settings: ATCC 700603, 18 h, ASSAY_TEST Inhibition of Bacterial Growth, detection method Absorption (OD600), MEDIA CAMHB, plate type 384well, NBS, CORNING #3640
Description: Antibacterial activity against Klebsiella pneumoniae MDR ATCC 70063 (CO-ADD:GN_003); MIC in CAMBH media using NBS plates, by OD(600)

[7] = tested on: Candida albicans; assay: microbe, parasite or virus in culture; settings: ATCC 90028, ASSAY_TEST Inhibition of Fungal Growth, detection method Absorption (OD530), plate type 384well, NBS, CORNING #3640
Description: Antifungal activity against Candida albicans ATCC 90028 (CO-ADD:FG_001); MIC in YNB media using NBS plates, by OD630

[8] = tested on: Pseudomonas aeruginosa; assay: microbe, parasite or virus in culture; settings: ATCC 27853, 18 h, ASSAY_TEST Inhibition of Bacterial Growth, detection method Absorption (OD600), MEDIA CAMHB, plate type 384well, NBS, CORNING #3640
Description: Antibacterial activity against Pseudomonas aeruginosa ATCC 27853 (CO-ADD:GN_042); MIC in CAMBH media using NBS plates, by OD(600)

MIC [1] [µg/mL] | MIC [2] [µg/mL] | MIC [3] [µg/mL] | MIC [4] [µg/mL] | MIC [6] [µg/mL] | MIC [7] [µg/mL] | MIC [8] [µg/mL] | Structure (SMILES) | CC50 [5] [µg/mL]
> 32 | 16 | > 32 | > 32 | > 32 | > 32 | > 32 | Cl.N=C(N)Nc1nc(-c2c[nH]c3ccccc23)cs1 | 9.6
> 32 | > 32 | > 32 | > 32 | > 32 | > 32 | > 32 | NC(N)=Nc1nc(-c2csc3ccccc23)cs1 | > 32
